From patent publication US11753399B2, “Therapeutic compounds” (Gilead Sciences, Inc., priority 2018, dated 2023)

Assays:
[1] = system: HIV-IIIb; assay: Test A: Antiviral Assay in MT4 Cells; assay type: cell-based, HIV-1; conditions: Human immunodeficiency virus 1, MT4, 120 h, inhibition of virus-induced cell killing, MT-4 cells, HIV-IIIb, 5 days, values normalized to 100%; for inhibition at 0.01 µM: from dose response curve at 0.01 μM (10 nM), read-out: % inhibition at 0.01 μM; for inhibition at 0.2 µM: from dose response curve at 0.20 μM (200 nM), read-out: % inhibition at 0.20 μM
Protocol: (§1) MT-4 cells were next mixed with HIV-IIIb at a multiplicity of infection (m.o.i.) of 0.003 for 1 hour, after which time 35 μL of virus/cell mixture (2000 cells) was immediately added to each well containing 40 μL of diluted compound. The plates were then incubated at 37° C. for 5 days. After 5 days of incubation, 25 μl of 2× concentrated CellTiter-Glo Reagent (catalog #G7571, Promega Biosciences, Inc., Madison, Wis.) was added to each well containing MT-4 cells. Cell lysis was carried out by incubating at room temperature for 10 min and then chemiluminescence was read.

[2] = system: MT-4 cells; assay: Test B: Cytotoxicity Assay (same protocol as Test A, uninfected cells); assay type: cell-based; conditions: uninfected MT-4 cells, 5 days, CellTiter-Glo
Protocol: as §1, with “read. […] Compound cytotoxicity and the corresponding CC50 values was determined using the same protocol as described in the antiviral assay (Test A) except that uninfected cells were used.” for “read.”

[3] = as above; assay type: cell-based; conditions: human, uninfected MT-4 cells, CellTiter-Glo
Protocol: as §1, with “read. […] Compound cytotoxicity and the corresponding CC50 values was determined using the same protocol as described in the antiviral assay (Test A) except that uninfected cells were used.” for “read.”

Row | SMILES | inhibition at 0.01 µM [1] | inhibition at 0.2 µM [1] | CC50 [2] | CC50 at 5 days [3]
1 | CC(C)(O)c1nnc(Nc2nn(CC(F)F)c3c(-c4ccc(C#CC(C)(C)S(=O)(=O)C5CC5)nc4[C@H](Cc4cc(F)cc(F)c4)NC(=O)Cn4nc(C(F)F)c5c4C(F)(F)[C@@H]4C[C@H]54)ccc(Cl)c23)o1 [Example 24] | 100% | 100% | 9.07 µM | –
2 | Cn1nc(NS(=O)(=O)C2(C)CC2)c2c(Cl)ccc(-c3ccc(C#CC(C)(C)S(=O)(=O)C4CC4)nc3[C@H](Cc3cc(F)cc(F)c3)NC(=O)Cn3nc(C(F)F)c4c3C(F)(F)CCC4(F)F)c21 [Example 34] | 89% | 90% | – | > 57.1 µM
3 | CC(C)(C#Cc1ccc(-c2ccc(Cl)c3c(NS(=O)(=O)C4CC4)nn(CC(F)(F)F)c23)c([C@H](Cc2cc(F)cc(F)c2)NC(=O)Cn2nc(C(F)F)c3c2C(F)(F)[C@@H]2C[C@H]32)n1)S(=O)(=O)C1CC1 [Example 35] | 97% | 97% | – | > 57.1 µM
4 | Cn1nc(NS(=O)(=O)C2(C)CC2)c2c(Cl)ccc(-c3ccc(C#CC(C)(C)S(=O)(=O)C4CC4)nc3[C@H](Cc3cc(F)cc(F)c3)NC(=O)Cn3nc(C(F)F)c4c3C(F)(F)[C@@H]3C[C@H]43)c21 [Example 20] | 89% | 89% | – | > 57.1 µM
5 | Cn1nc(NS(C)(=O)=O)c2c(Cl)ccc(-c3ccc(C#CC(C)(C)S(=O)(=O)C4CC4)nc3[C@H](Cc3cc(F)cc(F)c3)NC(=O)Cc3ncc[nH]3)c21 [Example 66] | 61% | 97% | – | 11.7 µM
6 | CC1(S(=O)(=O)Nc2nn(CC(F)(F)F)c3c(-c4ccc(C#CC(C)(C)S(=O)(=O)C5(C)CC5)nc4[C@H](Cc4cc(F)cc(F)c4)NC(=O)Cn4nc(C(F)(F)F)c5c4C(F)(F)[C@@H]4C[C@H]54)ccc(Cl)c23)CC1 [Example 32] | 100% | 100% | – | > 57.1 µM
7 | CC(C)(C#Cc1ccc(-c2ccc(Cl)c3c(NS(=O)(=O)CC4CC4)nn(CC(F)F)c23)c([C@H](Cc2cc(F)cc(F)c2)NC(=O)Cn2nc(C(F)F)c3c2C(F)(F)[C@@H]2C[C@H]32)n1)S(=O)(=O)C1CC1 [Example 26] | 100% | 100% | – | > 57.1 µM
8 | Cn1nc(NS(C)(=O)=O)c2c(Cl)ccc(-c3ccc(C#CC(C)(C)S(=O)(=O)C4CC4)nc3[C@H](Cc3cc(F)cc(F)c3)NC(=O)CCn3cccn3)c21 [Example 60] | 100% | 100% | – | 19.2 µM
9 | Cn1nc(NS(C)(=O)=O)c2c(Cl)ccc(-c3ccc(C#CC(C)(C)S(=O)(=O)C4CC4)nc3[C@H](Cc3cc(F)cc(F)c3)NC(=O)Cn3nc(C(F)F)cc3C(F)F)c21 [Example 43] | 87% | 87% | – | > 57.1 µM
10 | Cn1nc(NS(C)(=O)=O)c2c(Cl)ccc(-c3ccc(C#CC(C)(C)S(=O)(=O)C4CC4)nc3[C@H](Cc3cc(F)cc(F)c3)NC(=O)Cn3nc(C(F)F)c(C4CC4)c3C(F)F)c21 [Example 59] | 81% | 93% | – | > 57.1 µM
11 | CCS(=O)(=O)Nc1nn(CC(F)F)c2c(-c3ccc(C#CC(C)(C)S(=O)(=O)C4CC4)nc3[C@H](Cc3cc(F)cc(F)c3)NC(=O)Cn3nc(C(F)F)c4c3C(F)(F)[C@@H]3C[C@H]43)ccc(Cl)c12 [Example 9] | 96% | 96% | – | > 57.1 µM
12 | Cn1nc(Nc2nnc(C(F)F)o2)c2c(Cl)ccc(-c3ccc(C#CC(C)(C)S(=O)(=O)C4CC4)nc3[C@H](Cc3cc(F)cc(F)c3)NC(=O)Cn3nc(C(F)F)c4c3C(F)(F)[C@@H]3C[C@H]43)c21 [Example 30] | 99% | 99% | – | > 57.1 µM
13 | CC(C)(C#Cc1ccc(-c2cccc3c(NS(=O)(=O)C4CC4)nn(CC(F)F)c23)c([C@H](Cc2cc(F)cc(F)c2)NC(=O)Cn2nc(C(F)F)c3c2C(F)(F)[C@@H]2C[C@H]32)n1)S(=O)(=O)C1CC1 [Example 52] | 93% | 93% | – | > 57.1 µM
14 | CC(C)(C#Cc1ccc(-c2ccc(Cl)c3c(NS(=O)(=O)C4CC4)nn(C4COC4)c23)c([C@H](Cc2cc(F)cc(F)c2)NC(=O)Cn2nc(C(F)F)c3c2C(F)(F)[C@@H]2C[C@H]32)n1)S(=O)(=O)C1CC1 [Example 41] | 100% | 100% | – | > 57.1 µM
15 | Cn1nc(NS(=O)(=O)C2CC2)c2c(Cl)ccc(-c3ccc(C#CC(C)(C)S(=O)(=O)C4CC4)nc3[C@H](Cc3cc(F)cc(F)c3)NC(=O)Cn3nc(C(F)(F)F)c4c3C(F)(F)[C@@H]3C[C@H]43)c21 [Example 13] | 100% | 100% | – | > 57.1 µM
16 | Cn1nc(NS(C)(=O)=O)c2c(Cl)ccc(-c3ccc(C#CC(C)(C)S(=O)(=O)C4CC4)nc3[C@H](Cc3cc(F)cc(F)c3)NC(=O)Cn3cccn3)c21 [Example 50] | 0% | 36% | – | > 53.6 µM
17 | Cn1nc(Nc2nnc(C(C)(C)O)o2)c2c(Cl)ccc(-c3ccc(C#CC(C)(C)S(=O)(=O)C4CC4)nc3[C@H](Cc3cc(F)cc(F)c3)NC(=O)Cn3nc(C(F)F)c4c3C(F)(F)[C@@H]3C[C@H]43)c21 [Example 10] | 100% | 100% | – | 18.5 µM
18 | Cn1nc(NS(C)(=O)=O)c2c(Cl)ccc(-c3ccc(C#CC(C)(C)S(=O)(=O)C4CC4)nc3[C@H](Cc3cc(F)cc(F)c3)NC(=O)Cn3nnc4ccccc43)c21 [Example 63] | 1% | 100% | – | 21.8 µM
19 | Cn1nc(NS(=O)(=O)CC2CC2)c2c(Cl)ccc(-c3ccc(C#CC(C)(C)S(=O)(=O)C4CC4)nc3[C@H](Cc3cc(F)cc(F)c3)NC(=O)Cn3nc(C(F)F)c4c3C(F)(F)[C@@H]3C[C@H]43)c21 [Example 14] | 100% | 100% | – | > 57.1 µM
20 | CC(C)(C#Cc1ccc(-c2ccc(Cl)c3c(NS(C)(=O)=O)nn(CC(F)(F)F)c23)c([C@H](Cc2cc(F)cc(F)c2)NC(=O)Cn2nc(C(F)(F)F)c3c2C(F)(F)[C@@H]2C[C@H]32)n1)S(=O)(=O)C1CC1 [Example 68] | 100% | 100% | – | > 50 µM
21 | Cn1nc(NS(C)(=O)=O)c2c(Cl)ccc(-c3ccc(C#CC(C)(C)S(=O)(=O)C4CC4)nc3[C@H](Cc3cc(F)cc(F)c3)NC(=O)Cn3ccnn3)c21 [Example 48] | 0% | 0% | – | > 57.1 µM
22 | Cn1nc(NS(=O)(=O)CC2CC2)c2c(Cl)ccc(-c3ccc(C#CC(C)(C)S(=O)(=O)C4CC4)nc3[C@H](Cc3cc(F)cc(F)c3)NC(=O)Cn3nc(C(F)(F)F)c4c3C(F)(F)[C@@H]3C[C@H]43)c21 [Example 15] | 98% | 98% | – | > 57.1 µM
23 | Cn1nc(NS(C)(=O)=O)c2c(Cl)ccc(-c3ccc(C#CC(C)(C)S(=O)(=O)C4CC4)nc3[C@H](Cc3cc(F)cc(F)c3)NC(=O)Cn3cc(C(F)(F)F)nc3C3CC3)c21 [Example 64] | 45% | 94% | – | > 50 µM
24 | Cn1nc(NS(=O)(=O)C2CC2)c2cccc(-c3ccc(C#CC(C)(C)S(=O)(=O)C4CC4)nc3[C@H](Cc3cc(F)cc(F)c3)NC(=O)Cn3nc(C(F)F)c4c3C(F)(F)[C@@H]3C[C@H]43)c21 [Example 40] | 84% | 84% | – | > 57.1 µM
25 | CC(C)(C#Cc1ccc(-c2ccc(Cl)c3c(NS(=O)(=O)C4CC4)nn(C4COC4)c23)c([C@H](Cc2cc(F)cc(F)c2)NC(=O)Cn2nc(C(F)(F)F)c3c2C(F)(F)[C@@H]2C[C@H]32)n1)S(=O)(=O)C1CC1 [Example 69] | 92% | 92% | – | > 50 µM
26 | Cn1nc(NS(C)(=O)=O)c2c(Cl)ccc(-c3ccc(C#CC(C)(C)S(=O)(=O)C4CC4)nc3[C@H](Cc3cc(F)cc(F)c3)NC(=O)Cn3nc(C(F)F)c(Br)c3C(F)F)c21 [Example 58] | 95% | 95% | – | > 57.1 µM
27 | Cn1nc(NS(C)(=O)=O)c2c(Cl)ccc(-c3ccc(C#CC(C)(C)S(=O)(=O)C4CC4)nc3[C@H](Cc3cc(F)cc(F)c3)NC(=O)Cn3ccnc3)c21 [Example 49] | 0% | 90% | – | > 57.1 µM
28 | Cn1nc(NS(C)(=O)=O)c2c(Cl)ccc(-c3ccc(C#CC(C)(C)S(=O)(=O)C4CC4)nc3[C@H](Cc3cc(F)cc(F)c3)NC(=O)Cn3nc(C(F)F)c(Cl)c3C(F)F)c21 [Example 56] | 0% | 91% | – | 23.5 µM
